Assay: Tested for inhibition against purified catalytic subunit of protein phosphatase-1 from rabbit skeletal muscle

Structure (SMILES): C/C=C1/C(=O)N[C@@H](C(=O)O)[C@H](C)C(=O)N[C@@H](C(C)C)C(=O)N[C@@H](/C=C/C(C)=C/[C@H](C)[C@H](Cc2ccccc2)OC)[C@H](C)C(=O)N[C@@H](C(=O)O)CCC(=O)N1C [Motuporin]
- IC50: < 1 nM

Reference: BindingDB's records for doi:10.1016/S0960-894X(00)80281-4 (1993)
